Experimental data as given in patent US20030114529A1, “Hydroxamic acid thrombospondin peptide analog that inhibits aggrecanase activity” (priority 2001, published 2003).

Tests used:
Collagenase MMP-1 = biological target: T1, Collagenase MMP-1 (Homo sapiens, UniProt P03956); assay: Inhibition of collagenase MMP-1 by hydroxamic acids; type: biochemical; conditions: for Ki: Ki = IC50/(1 + [S]/Km), read-out: Apparent Ki Collagenase MMP-1
T1 sequence (P03956 100-469): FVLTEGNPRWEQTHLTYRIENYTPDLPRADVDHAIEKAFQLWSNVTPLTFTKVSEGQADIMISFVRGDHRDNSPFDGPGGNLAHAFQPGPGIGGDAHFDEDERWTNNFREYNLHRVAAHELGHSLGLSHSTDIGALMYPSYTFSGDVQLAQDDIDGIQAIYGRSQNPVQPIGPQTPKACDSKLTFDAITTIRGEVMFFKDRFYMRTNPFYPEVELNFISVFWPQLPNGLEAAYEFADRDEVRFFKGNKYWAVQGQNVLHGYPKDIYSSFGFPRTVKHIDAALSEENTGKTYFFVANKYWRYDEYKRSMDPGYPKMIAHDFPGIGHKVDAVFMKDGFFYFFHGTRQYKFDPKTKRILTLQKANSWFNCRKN

gelatinase MMP-2 = biological target: T2, gelatinase MMP-2 (Homo sapiens, UniProt P08253); assay: Inhibition of gelatinase MMP-2 by hydroxamic acids; type: biochemical; conditions: for Ki: Ki = IC50/(1 + [S]/Km), read-out: Apparent Ki gelatinase MMP-2
T2 sequence (P08253 110-660): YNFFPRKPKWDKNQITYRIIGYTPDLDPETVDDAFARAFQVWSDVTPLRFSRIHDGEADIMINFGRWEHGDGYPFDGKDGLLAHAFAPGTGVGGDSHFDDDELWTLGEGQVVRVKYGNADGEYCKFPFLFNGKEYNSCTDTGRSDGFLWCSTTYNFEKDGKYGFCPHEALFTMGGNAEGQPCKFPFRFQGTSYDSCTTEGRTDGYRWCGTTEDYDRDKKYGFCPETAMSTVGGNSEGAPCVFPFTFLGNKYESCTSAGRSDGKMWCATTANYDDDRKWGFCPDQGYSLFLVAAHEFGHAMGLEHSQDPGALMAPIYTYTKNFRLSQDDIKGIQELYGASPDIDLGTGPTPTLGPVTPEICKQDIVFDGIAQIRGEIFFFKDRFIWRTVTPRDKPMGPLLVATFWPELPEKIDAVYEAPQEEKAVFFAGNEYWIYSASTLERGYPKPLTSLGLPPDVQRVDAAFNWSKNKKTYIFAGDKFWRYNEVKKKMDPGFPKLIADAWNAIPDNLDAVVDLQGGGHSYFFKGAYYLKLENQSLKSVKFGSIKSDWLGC

stromelysin MMP-3 = stromelysin MMP-3 (Homo sapiens, UniProt P08254); assay: Inhibition of stromelysin MMP-3 by hydroxamic acids; type: biochemical; conditions: for Ki: Ki = IC50/(1 + [S]/Km), read-out: Apparent Ki stromelysin MMP-3
Chain of stromelysin MMP-3 (P08254 100-477): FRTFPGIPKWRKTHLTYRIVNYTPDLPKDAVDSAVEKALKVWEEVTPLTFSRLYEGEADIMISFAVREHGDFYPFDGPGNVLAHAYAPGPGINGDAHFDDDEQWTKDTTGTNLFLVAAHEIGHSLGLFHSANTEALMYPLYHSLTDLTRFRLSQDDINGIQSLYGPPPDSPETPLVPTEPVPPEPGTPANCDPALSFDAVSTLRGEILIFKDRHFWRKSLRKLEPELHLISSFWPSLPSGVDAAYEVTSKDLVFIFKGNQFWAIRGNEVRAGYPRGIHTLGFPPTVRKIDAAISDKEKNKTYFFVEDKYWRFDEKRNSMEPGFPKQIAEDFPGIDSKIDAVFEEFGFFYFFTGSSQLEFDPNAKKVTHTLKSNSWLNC

[1] = tested on: Pig articular cartilage explants; assay: IL-1 induced aggrecan degradation in pig articular cartilage explants (GAG release, DMMB assay); type: cell-based; conditions: 72 hours; for IC50: Sus scrofa, pig explants, IL-1α, inhibitor 0.1 to 10 μM
Experimental: (§1) The same compounds were tested for the ability to block aggrecan cleavage in an in vitro model of cartilage degradation. Pig articular cartilage explants were cultured for 72 hours in the presence of IL-α, with or without one of the inhibitors at a concentration range og 0.1 to 10 μM. Culture media were assessed for the level of glycosaminoglycan chains (GAG) by dimethyl methylene blue (DMMB) assay, as a measure of aggrecan breakdown and IC50 values were calculated (Table 1). […] Therefore, we tested JWD40 for its ability to prevent aggrecan degradation in osteoarthritic (OA) cartilage. Human OA cartilage explants were cultured with or without JWD40, 0.1 to 10 μM. After 48 hours, media were analyzed for the presence of aggrecan products generated by cleavage by aggrecanase, containing the new N-terminus ^374ARGSV.
Articular cartilage was dissected from the knees of young pigs. Cartilage was allowed to equilibrate for 3 days in DMEM supplemented with 10% FCS, penicillin (100 U/ml) and streptomycin (100 μg/ml). Subsequently, cartilage was cut into 3×3 mm explants, weighing approximately 10-20 mg each, and incubated in 96-well plates for 72 hours with either control medium (serum-free DMEM),ml), IL-1α (100 ng/ml), or IL-1α (100 ng/ml) plus a series of hydroxamic acids at a concentration range of 0.1 μM to 10 μM. At the end of the culture period, glycosaminoglycan (GAG) levels in the culture media were determined by dimethylmethylene blue (DMMB) assay, as described by Farndale et al (13).

[2] = tested on: ADAMTS-4/ADAMTS-5 (aggrecanase); assay: Inhibition of aggrecan cleavage at Glu1480-Gly1481 by recombinant ADAMTS-4/ADAMTS-5 (Western blot, densitometry); type: biochemical, Human; conditions: aggrecan 500 nM, enzyme 5 nM, 2 hours, 37° C.; Ki = IC50/(1 + [S]/Km); read-out: Apparent Ki aggrecanase ADAM-TS4/5
Experimental: A series of newly synthesized hydroxamic acids (FIG. 1) were tested for their ability to inhibit recombinant ADAMTS-4/ADAM-TS5 as well a several matrix metalloproteinases (MMPs). In this study aggrecan, at a concentration of 500 nM, was incubated for 2 hours at 37° C. with 5 nM of either ADAMTS-4/ADAM-TS5 in the presence or absence of one of the hydroxamic acids at a concentration range from 0.1 to 1000 nM. Subsequently, the fractions were analysed for cleavage of aggrecan at the Glu^1480-^1481Gly site by Western Blot analysis, using a specific antibody recognizing the new C-terminus GELE^1480. Inhibition of cleavage was determined by scanning densitometry and the Ki values were determined (Table 1).
Digestions were carried out in 100 μl of 50 mM Tris/HCl buffer, pH 7.5, containing 100 mM NaCl and 10 mM CaCl2. Human recombinant ADAMTS-4/ADAMTS-5 were prepared as described (1, 2). Purified bovine aggrecan (12) (500 nM) was incubated with 5 nM ADAMTS-4/ADAMTS-5 at 37° C. for 2 hours, in the absence or presence of each of the hydroxamates described above, at concentrations ranging from […]. Following the incubation, cleavage of aggrecan at the Glu^1480-^1481Gly bond was monitored by Western Blot analysis, using the neoepitope antibody that recognizes the new C-terminus GELE^1480, as previously described (12).

aggrecanase-1 (ADAMTS4) = assay: Protection of native aggrecan from cleavage by full length aggrecanase-1 (Western blot, MAB2035); type: biochemical; conditions: peptide 100 μM, ADAMTS4 5 nM, aggrecan 500 nM, 5 hours, 37° C.
Experimental: An aggrecan binding peptide sequence derived from thrombospondin motif of aggrecanase-1 was tested for its ability to protect aggrecan from degradation by aggrecanase. Full length aggrecanase-1 (ADAMTS4), 5 nM, was incubated with native aggrecan, 500 nM, for 5 hours at 37° C. in the presence of the thrombospondin peptide GGWGPWGPWGDCSRTCGGG, 100 μM (Seq. No. 14). Aggrecan cleavage products were measured by Western blot analysis using the monoclonal antibody MAB2035.

[3] = tested on: Human OA cartilage explants; assay: Aggrecanase-generated aggrecan fragment release from human osteoarthritic cartilage explants; type: cell-based; conditions: 0.1 to 10 μM, 48 hours
Experimental: as §1
Articular cartilage was dissected from the hips of patients with osteoarthritis at the time of joint replacement. Cartilage was allowed to equilibrate for 3 days in DMEM supplemented with penicillin (100 U/ml) and streptomycin (100 μg/ml). […] At the end of the culture period, the media were analyzed for aggrecan fragments generated by cleavage of aggrecan by aggrecanase, using a neoepitope that recognizes the new N-terminus […] (14).

[4] = compared with Ki against aggrecanase

Row | Compound | Ki (Collagenase MMP-1) | Ki (gelatinase MMP-2) | Ki (stromelysin MMP-3) | IC50 [1] | Ki [2] | Protection of aggrecan from cleavage by aggrecanase (aggrecanase-1 (ADAMTS4)) | Potency against MMP-1 relative to aggrecanase (Collagenase MMP-1; [4]) | Potency against MMP-2 relative to aggrecanase (gelatinase MMP-2; [4]) | Potency against MMP-3 relative to aggrecanase (stromelysin MMP-3; [4]) | Protection against IL-1 induced aggrecan degradation ([1]; pig articular cartilage explants) | Release of aggrecanase-generated fragment with N-terminus 374ARGSV [3]
1 | CNC(=O)C(Cc1ccc(F)cc1)NC(=O)C(CC(=O)NO)CC(C)C (stereo not shown) [JWC-95] | 5.9 nM | 2.3 nM | 65 nM | 2900 nM | 98 nM |  |  |  |  |  | 
2 | GGWGPWGPWGDCSRTCGGG |  |  |  |  |  | protects aggrecan from cleavage by aggrecanase |  |  |  |  | 
3 | CNC(=O)C(Cc1ccccc1)NC(=O)C(CC(=O)O)CC(C)C (stereo not shown) [JWD-18] | 995 nM | > 1000 nM | > 1000 nM | > 100000 nM | > 10000 nM |  |  |  |  |  | 
4 | CNC(=O)C(CCc1ccccc1)NC(=O)C(CC(=O)NO)CC(C)C (stereo not shown) [JWC-97] | 7.4 nM | 2.3 nM | 135 nM | 1800 nM | 62 nM |  |  |  |  |  | 
5 | CNC(=O)C(Cc1ccc(OCc2ccccc2)cc1)NC(=O)C(CC(=O)NO)CC(C)C (stereo not shown) [JWC-100] | 1 nM | < 0.1 nM | 0.9 nM | 6000 nM | 160 nM |  |  |  |  |  | 
6 | CNC(=O)[C@@H](NC(=O)[C@@H](CC(=O)NO)CC(C)C)C(C)C [JWD-40] | 26 nM | 36 nM | 125 nM | 2050 nM | 17 nM |  | twofold less potent | twofold less potent | a log less potency | very effective | blocked the release of this fragment in a concentration-dependent manner
7 | CNC(=O)C(C)NC(=O)C(CC(=O)NO)CC(C)C (stereo not shown) [JWD-52] | 76 nM | 59 nM |  |  | 35 nM |  |  |  |  |  | 
